Reference: patent publication US12233073B2, “Skin care formulations and skin cancer treatment” (Regents of the University of Minnesota, priority 2017, dated 2025)

Columns and labels:
[1] = Absorption of sUV wavelengths by the PRPK inhibitors; format: physicochemical; settings: for absorption of sUV wavelengths: UVB or UVA range (280 to 400 nm)
Procedure: To assess whether the effectiveness of rocuronium bromide or betamethasone 17-valerate was related to absorption or attenuation of sUV wavelengths, instead of or in addition to inhibition of PRPK phosphorylation, absorption of sUV wavelengths by rocuronium bromide or betamethasone 17-valerate was evaluated. […] The maximum absorption wavelength for rocuronium bromide was 227 nm, and that for betamethasone-17-valerate was 240 nm.

[2] = system: SSL-exposed skin of SKH-1 hairless mouse; assay: Acute SSL-induced skin inflammation in SKH-1 hairless mouse skin (H&E, p-PRPK staining and blot); format: in vivo; settings: for sUV-induced increase in PRPK expression / sUV-induced increase in epidermal thickness: topical in cream carrier, 24 h after SSL irradiation, vs untreated sUV-exposed group; for phosphorylation of PRPK in sUV-treated mouse skin / sUV-induced phosphorylation on increasing the concentration: topical treatment; for sUV-induced phosphorylation on increasing the concentration: higher concentration
Procedure: PRPK phosphorylation induced by sUV is a potent stimulator of skin inflammation. Inflammation contributes to tumor development and progression and metastasis often arises in acute and chronic inflammatory skin conditions and increased epidermal thickness is a sign of sUV-induced inflammatory responses. To examine the effect of rocuronium bromide on SSL-induced acute skin inflammation, H&E (haemotoxylin and eosin) staining on SSL-exposed skin tissues of SKH-1 hairless mouse skin was performed. FIG. 15 is a photographic array comparing epidermal thickness in mouse skin samples exposed to one or more of SSL, rocuronium bromide, and betamethasone 17-valerate. FIG. 16 is a photographic array comparing expression of phosphorylated PRPK in immunologically stained mouse skin samples exposed to one or more of SSL, rocuronium bromide, and […]. A cream carrier was used to apply the rocuronium bromide or betamethasone 17-valerate. […] In contrast, application of rocuronium bromide or betamethasone-17-valerate attenuated sUV-induced increases in epidermal thickness and PRPK expression compared to the untreated sUV-exposed group (FIGS. 15 and 16).
FIG. 17 is a photograph illustrating a chromatographic plate comparing the phosphorylation of PRPK in mouse skin tissue samples treated or not treated with rocuronium bromide and exposed or not exposed to SSL. FIG. 18 is a photograph illustrating a chromatographic plate comparing the phosphorylation of PRPK in mouse skin tissue samples treated or not treated with betamethasone 17-valerate and exposed or not exposed to SSL. Topical treatment with rocuronium bromide (FIG. 17) or betamethasone-17-valerate (FIG. 18) decreased phosphorylation of PRPK in sUV-treated mouse skin.

[3] = system: PRPK; assay: SSL-induced phosphorylation of PRPK in JB6 cells; format: cell-based; settings: increasing concentrations added to the medium
Procedure: The effect of the binding of rocuronium bromide to PRPK on SSL-induced phosphorylation of PRPK was evaluated. FIG. 13C is a photograph illustrating a chromatographic plate showing the reduction in SSL-induced phosphorylation of PRPK in JB6 cells with increasing concentrations of rocuronium bromide, added into the medium. Thus, rocuronium bromide inhibited sUVL-induced phosphorylation of PRPK.
The effect of the binding of betamethasone 17-valerate to PRPK on SSL-induced phosphorylation of PRPK was evaluated. FIG. 14C is a photograph illustrating a chromatographic plate showing the reduction in SSL-induced phosphorylation of PRPK in JB6 cells with an increasing concentration of betamethasone 17-valerate, added to the medium. Thus, betamethasone 17-valerate inhibited SSL-induced phosphorylation of PRPK.

[4] = molecular target: T1, PRPK in A431 lysates (Homo sapiens, UniProt Q96S44); assay: Ex vivo binding assay, drug-conjugated Sepharose 4B beads with A431 cell lysates; settings: pull-down with drug-conjugated Sepharose 4B beads
T1 construct: endogenous in cells; host or cells: A431
T1 sequence (Q96S44 1-253): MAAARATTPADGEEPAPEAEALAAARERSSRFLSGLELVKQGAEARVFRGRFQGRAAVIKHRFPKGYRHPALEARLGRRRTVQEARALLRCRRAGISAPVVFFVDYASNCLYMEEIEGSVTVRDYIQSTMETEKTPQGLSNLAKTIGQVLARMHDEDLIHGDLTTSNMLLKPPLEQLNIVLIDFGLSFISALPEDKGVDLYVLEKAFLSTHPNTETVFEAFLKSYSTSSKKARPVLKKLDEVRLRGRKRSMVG
Procedure: (§1) The interaction between rocuronium bromide and PRPK, and the inhibition of PRPK phosphorylation by rocuronium bromide was evaluated. In vitro and ex vivo binding assays were conducted using GST-PRPK or A431 cell lysates and rocuronium bromide-conjugated Sepharose 4B beads. FIG. 13A is a photograph illustrating a chromatographic plate showing the interaction and binding of PRPK with rocuronium bromide in A431 cells. FIG. 13B is a photograph illustrating a chromatographic plate showing the interaction and binding of rocuronium bromide with wildtype PRPK recombinant GST protein.
as §1, with “betamethasone 17-valerate” for “rocuronium bromide”, “using recombinant” for “using”, “betamethasone 17-valerate-conjugated” for “rocuronium bromide-conjugated”, “14A” for “13A”, “14B” for “13B”

## CCCCC(=O)O[C@]1(C(=O)CO)[C@@H](C)C[C@H]2[C@@H]3CCC4=CC(=O)C=C[C@]4(C)[C@@]3(F)[C@@H](O)C[C@@]21C [betamethasone 17-valerate]
[1]
  maximum absorption wavelength: 240 nm
  absorption of sUV wavelengths: do not Substantially Absorb or Block
[2]
  sUV-induced increase in PRPK expression: attenuated
  sUV-induced increase in epidermal thickness: attenuated
  phosphorylation of PRPK in sUV-treated mouse skin: decreased
  sUV-induced phosphorylation on increasing the concentration: further reduced
[3]
  SSL-induced phosphorylation of PRPK: inhibited
[4]
  binding to PRPK in A431 lysates: binds

## C=CC[N+]1([C@H]2C[C@H]3[C@@H]4CC[C@H]5C[C@H](O)[C@@H](N6CCOCC6)C[C@]5(C)[C@H]4CC[C@]3(C)[C@H]2OC(C)=O)CCCC1 [rocuronium bromide]
[1]
  maximum absorption wavelength: 227 nm
  absorption of sUV wavelengths: do not Substantially Absorb or Block
[2]
  sUV-induced increase in PRPK expression: attenuated
  sUV-induced increase in epidermal thickness: attenuated
  phosphorylation of PRPK in sUV-treated mouse skin: decreased
  sUV-induced phosphorylation on increasing the concentration: further reduced
[3]
  SSL-induced phosphorylation of PRPK: inhibited
[4]
  binding to PRPK in A431 lysates: binds
